Results: US8932853B2, “Method for manufacturing pancreatic-hormone-producing cells” (Takeda Pharmaceutical Company Limited, priority 2009, dated 2015)
“Also recorded” adds a separate entry of the source.

Assays:
[1] = system: endodermal cells induced from human iPS cells; format: cell-based; conditions: added simultaneously with dorsomorphin (1 μM) and retinoic acid (2 μM) day 3 to day 10; SB431542 5 μM, ALK5 inhibitor II 2 μM, A-83-01 0.2 μM, TGFβRI kinase inhibitor VIII 0.2 μM; vs dorsomorphin and retinoic acid alone
Description: The dorsomorphin is an inhibitor of AMP-activated protein kinase (AMPK), and an inhibitor of ALK2, ALK3 and ALK6 from among activin receptor-like kinases (ALK). In addition, SB431542 is an inhibitor of ALK4, ALK5 and ALK7 from among ALKs.
As a control, the medium was changed to one added with dorsomorphin and retinoic acid alone (Ctrl). […] After the culture, the expression level of NGN3, which is progenitor cells of pancreatic hormone-producing cells marker, was measured in the same manner as in Example 1.

[2] = system: progenitor cells of pancreatic hormone-producing cells induced from human iPS cells; experiment: quantitative RT-PCR of insulin and PDX1 after step (4); format: cell-based; conditions: added in step (4) from day 10; forskolin 10 μM, nicotinamide 10 mM, dexamethasone 10 μM, ALK5 inhibitor II 5 μM; measured on day 12, 16 and 20; vs control without inducing factors
Description: The expression level of PDX1, which is pancreatic progenitor cells marker, and insulin, which is pancreatic β cells (insulin-producing cells) marker, was measured in the same manner as in Example 1.
The medium was changed once on day 7 of induction. […] The medium was changed every 3-4 days. After culture, the expression level of insulin was measured in the same manner as in Experimental Example 1.
The medium was changed once on day 7 of induction. […] The medium was changed every 5 days.
After culture under each condition, the expression levels of insulin in the cells on day 12 of differentiation induction, on day 16 of differentiation induction and day 20 of differentiation induction were measured in the same manner as in Example 1.

[3] = system: progenitor cells of pancreatic hormone-producing cells induced from human iPS cells; experiment: immunofluorescent staining with anti-insulin antibody after step (4); format: cell-based; conditions: each added alone in step (4), day 10 to day 21; forskolin 10 μM, dibutyl cAMP 500 μM, IBMX 200 μM, ALK5 inhibitor II 5 μM, A-83-01 0.5 μM, SB431542 10 μM, TGFβRI kinase inhibitor VIII 2 μM, dexamethasone 10 μM, hydrocortisone 5 μM, betamethasone 2 μM, beclomethasone 1 μM
[4] = system: endodermal cells induced from human iPS cells; experiment: immunofluorescent staining with anti-PDX1 antibody after step (3); conditions: added simultaneously with retinoic acid (2 μM) for 7 days, day 3 to day 10; Noggin 100 ng/ml, dorsomorphin 1 μM
[5] = system: human iPS cells (253G1 strain); experiment: quantitative RT-PCR of BRACHYURY and SOX17 during induction of human iPS cells into endodermal cells, steps (1)-(2); format: cell-based; conditions: added with activin A (100 ng/ml) only the first day, CHIR99021 3 μM, Wnt3a 25 ng/ml, relative to GAPDH
From the text: As a first stage for induction of differentiation of human iPS cells (iPS cells obtained by introducing Oct3/4 gene, Klf4 gene and Sox2 gene: see Nat Biotechnol 2008; 26: 101-106) into pancreas cells (particularly pancreatic hormone-producing cells), differentiation of human iPS cells was induced into endodermal cells by using a 96 well plate.
As the human iPS cells, 253G1 strain (iPS cell line produced by expressing OCT4/SOX2/KLF4 with retrovirus; Nature Biotechnology 26, 101-106) was used. Maintenance culture of the iPS cells in an undifferentiated state was performed using mitomycin-treated mouse fibroblast (MEFs) seeded on a gelatin-coated plate as feeder cells, and a medium for primate ES cells (ReproCELL Incorporated) added with 4 ng/ml bFGF (PeproTech EC) and 0.5× Penicillin-streptomycin (SIGMA) as a medium at 37° C. under 5% CO2. The medium was changed every day, the cell mass was detached every 4-5 days using a cell detachment solution for primate ES cell (ReproCELL Incorporated), and passaged by seeding on new feeder cells.
As a preculture for differentiation induction into endodermal cells, undifferentiated iPS cells were seeded in a 96 well plate. First, iPS cells maintained in a cell mass was treated with 0.25% trypsin-1 mM EDTA solution (GIBCO) and dissociated until they became single cells. Then, iPS cells dispersed in a medium were seeded in a 96 well plate at a density of 2×10^4 cells per well and cultured at 37° C. under 5% CO2 for 1 day. The 96 well plate used had been gelatin-coated, seeded with 5×10^3 MEFs and cultured at 37° C. under 5% CO2 for 5 hr. In addition, as a culture medium for seeding, a medium for primate ES cells added with 10 μM Y-27632 (Wako Pure Chemical Industries, Ltd.) was used. One day after seeding, the medium was changed to a medium for primate ES cells without Y-27632, and the cells were further cultured for 2 days until they became confluent.
Differentiation of iPS cells into endodermal cells was induced according to the following method. First, the confluent cells were washed with RPMI medium (GIBCO), RPMI medium containing various differentiation-inducing factors and 2% fetal bovine serum (FBS) was added, and the mixture was cultured for 1 day. […]
To examine variation in the expression of endoderm differentiation marker when cultured under each condition, differentiation-induced cells were recovered over time, and the total RNA fractions were purified using RNeasy96 (Qiagen). Using a PrimeScript RT reagent kit (Takara Bio Inc.), cDNA was synthesized, and quantitative RT-PCR was performed, whereby the gene expression level of BRACHYURY, which is a primitive streak marker, and SOX17, which is an endodermal marker, was measured.

[6] = system: human iPS cells (253G1 strain); experiment: immunofluorescent staining with anti-SOX17 antibody on day 3 of differentiation induction; format: cell-based; conditions: added with activin A (100 ng/ml) for 1 day, then activin A alone 2 days, CHIR99021 3 μM, Wnt3a 25 ng/ml, SB415286 3 μM, SB216763 20 μM
Description: To examine expression of SOX17 protein after culture for 3 days, immunofluorescent staining using an anti-SOX17 antibody was performed. After culture up to day 3 in the same manner as in FIG. 1, the cells were fixed with 2% para-formaldehyde (PFA) for 10 min and further for 20 min with 4% PFA at room temperature.
Whether even use of a GSK3 inhibitor other than CHIR99021 in step (1) enables differentiation induction into endodermal cells was examined. The differentiation of human iPS cells into endodermal cells was induced according to the following method. […] Thereafter, the cells were washed with RPMI medium (GIBCO), and cultured for 1 day in RPMI medium containing various GSK3 inhibitors, activin A (100 ng/ml) and 2% fetal bovine serum (FBS). […] As a control, the cells were treated with a medium added only with activin A and free of GSK3 inhibitor. After culture for 1 day, the cells were washed with RPMI medium, and further cultured for 2 days in RPMI medium added with 2% FBS and 100 ng/ml activin A.
To examine expression of SOX17 protein on day 3 of differentiation induction, immunofluorescent staining using an anti-SOX17 antibody was performed. 4% PFA was added to the cells on day 3 of culture under each condition, the mixture was incubated at room temperature for 30 min to fix the cells.

Molecule: Cc1cccc(-c2n[nH]cc2-c2ccc3ncccc3n2)n1 [ALK5 inhibitor II, 2-[3-[6-methylpyridin-2-yl]-1H-pyrazol-4-yl]-1,5-naphthyridine]
- expression level of NGN3 [1]: increased remarkably
- expression level of insulin [2]: increased markedly; also recorded: high value
- positive rate of insulin-expressing cells [3]: remarkably increased; also recorded: induced differentiation into insulin-positive cells with high efficiency

Molecule: c1cc(-c2cnn3cc(-c4ccc(OCCN5CCCCC5)cc4)cnc23)ccn1 [dorsomorphin, 6-[4-(2-piperidin-1-ylethoxy)phenyl]-3-pyridin-4-ylpyrazolo[1,5-a]pyrimidine]
- differentiation into PDX1-positive cells [4]: remarkably induced; also recorded: many cells were induced into PDX1-positive cells

B1: Noggin: BMP antagonist (protein, UniProt Q13253 28-232, looked up)
Noggin: QHYLHIRPAPSDNLPLVDLIEHPDPIFDPKEKDLNETLLRSLLGGHYDPGFMATSPPEDRPGGGGGAAGGAEDLAELDQLLRQRPSGAMPSEIKGLEFSEGLAQGKKQRLSKKLRRKLQMWLWSQTFCPVLYAWNDLGSRFWPRYVKVGSCFSKRSCSVPEGMVCKPSKSVHLTVLRWRCQRRGGQRCGWIPIQYPIISECKCSC
- differentiation into PDX1-positive cells [4]: remarkably induced; also recorded: many cells were induced into PDX1-positive cells

B2: Wnt3a: differentiation-inducing factor generally used for endoderm induction along with activin A (protein, UniProt P56704 19-352, looked up)
Protein Wnt-3a: SYPIWWSLAVGPQYSSLGSQPILCASIPGLVPKQLRFCRNYVEIMPSVAEGIKIGIQECQHQFRGRRWNCTTVHDSLAIFGPVLDKATRESAFVHAIASAGVAFAVTRSCAEGTAAICGCSSRHQGSPGKGWKWGGCSEDIEFGGMVSREFADARENRPDARSAMNRHNNEAGRQAIASHMHLKCKCHGLSGSCEVKTCWWSQPDFRAIGDFLKDKYDSASEMVVEKHRESRGWVETLRPRYTYFKVPTERDLVYYEASPNFCEPNPETGSFGTRDRTCNVSSHGIDGCDLLCCGRGHNARAERRREKCRCVFHWCCYVSCQECTRVYDVHTCK
- expression level of SOX17 (endodermal marker) ([5]; then activin A alone 2 days, days 2-3): also lower than with a treatment with CHIR99021; also recorded: high value
- expression level of BRACHYURY (primitive streak marker) ([5]; day 1 of differentiation induction): lower than with a treatment with CHIR99021
- ratio of cells expressing SOX17 protein [6]: a part of the cells also expressed SOX17 protein; also recorded: remarkably detected
